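Values below derive from 48-hour exposures of cells grown in 96-well plates, with endpoints linearly interpolated between the two concentrations bracketing the appropriate inhibition level. GI50: concentration for 50% inhibition of growth. TGI: concentration producing complete growth inhibition.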 A value given as a limit tells only on which side of the number the result lay.

What all share (assay): DTP human tumour cell line panel, 48 h
Test [1] relates to A498 renal.
The test system of test [2] is HCC-2998 colon.
Test [3] deals with HCT-116 colon.
Test [4] deals with MALME-3M melanoma.
Test [5] has as its system MOLT-4 leukemia.
The subject of test [6] is OVCAR-4 ovarian.
The test system of test [7] is RXF 393 renal.
In test [8] the test system is SK-MEL-5 melanoma.
Test [9] concerns SR leukemia.
Test [10] relates to UO-31 renal.

By GI50 is commonly meant the concentration giving 50% growth inhibition. As a reminder, the TGI is the concentration giving total growth inhibition. A higher TGI goes with lower sensitivity of the cells. Regarding `CCN(CC)C(=S)SSC1CCCCC1`, the GI50 in [1] is 30.8 µM; in test [2], 19.7 µM; in [3] it was 12.9 µM; in [4] it was 20.8 µM; in [5] it was 11.4 µM; in [6] it was 15 µM. Moreover, the GI50 was 16.4 µM in test [7], 12.5 µM in [8], 0.0656 µM in [9] and 12.1 µM in test [10]. The TGI is > 100 µM in test [1]; 41.1 µM in [2]; 25.8 µM in test [3]; 46.3 µM in [4]; 43.5 µM in test [5]; 28.4 µM in test [6]. Further, the TGI in test [7] worked out at 31.2 µM; in [8], 26.3 µM; in [9], 4.36 µM; in test [10] it was 25.7 µM.

The values are drawn from PubChem BioAssay (NCI).
